The test concerns Hedgehog pathway activity. Put plainly: Shh-Light luciferase reporter assay of Hedgehog pathway activity (Shh-Light2 cells, SAG-stimulated). It counts as cell-based. The note with it: for activity at 2 µM: 2 μM compound, read-out: SHH-light % residual @ 2 μM; for activity at 2 µM / activity at 20 µM: SAG 500 nM; for activity at 20 µM: 20 μM compound, read-out: SHH-light % residual @ 20 μM; for pIC50: Table 2, SAG 500 nM, 28-32 hr treatment, read-out: Shh-light IC50. On the procedure: To examine the inhibition of dynein 2 in cell-based assays, an established luciferase reporter-based cellular assay of Hedgehog pathway activity was employed [Taipale et al., Nature. 2000; 406(6799): 1005-9]. Signaling in this pathway depends on the function of dynein 2. In this setting, expression of luciferase driven by Hedgehog pathway activity was inhibited by compound 5 with an IC50 value of 0.9±0.5 μM. […] The potencies of these compounds in this cell-based assay match the rank-order of dynein 2 inhibition in vitro. In these assays, Hedgehog pathway activity was stimulated using the Synthetic Agonist of Smoothened (SAG). This compound competes with many Hedgehog pathway inhibitors for binding to Smoothened, a key node in the signaling pathway.
SHH-Light Assay (Steinman et al. eLife 2017; 6:e25174.)
NIH-3T3 cells stably expressing a luciferase reporter downstream of a Gli binding site (Shh-Light2 cells, RRID: CVCL_2721) were maintained in DMEM with 10% bovine calf serum (BCS). Cells were seeded at a density of 30,000 cells/well in 96-well tissue culture-treated plates (Corning, cat #353072) in 100 μL in DMEM+10% BCS, and incubated for 48 hr (Taipale et al., 2000). Wells were washed briefly with PBS. Next […] of low serum media (DMEM+0.5% BCS) containing smoothened agonist (SAG, 500 nM), and either solvent control (0.2% DMSO) or test compound (serial three-fold dilutions of each inhibitor starting from 20 μM) were added to the wells. After 28-32 hr of inhibitor treatment, cells were washed with 50 μL PBS and lysed for >30 min in 30 μL Passive Lysis Buffer (Promega Dual Luciferase kit, cat E1910). 5 uL of each lysate was transferred to white, solid-bottom 96-well plates (Greiner, cat #655075), followed by rapid addition (within 30 s) of 30 μL of Luciferase Assay Reagent using a multichannel pipette. Luminescence for each condition was read using a Synergy Neo plate reader (5 s integration time per well). Cell line identity was confirmed by measurement of the degree of response to Hedgehog pathway stimulation by the synthetic agonist SAG and using previously published values from our groups and others as references (Firestone et al., 2012; Hyman et al., 2009).
In general terms: Reporter assays use an easily measured gene product as a stand-in for the process of interest.

pIC50: −log10 of the molar value.

Turning to `N#Cc1ccc2[nH]c3c(C#N)c(C4(c5ccc(Cl)cc5)CC4)nn3c(=O)c2c1` [Example 10, 2-[1-(4-Chlorophenyl)cyclopropyl]-9-oxo-4H-pyrazolo[5,1-b]quinazoline-3,7-dicarbonitrile], the activity at 2 µM is 70.1% and the activity at 20 µM came to 10%.
For `N#Cc1c(C2(c3ccc(Cl)cc3)CC2)nn2c(=O)c3cc(C(F)(F)F)ccc3[nH]c12` [Example 11, 2-[1-(4-Chlorophenyl)cyclopropyl]-9-oxo-7-(trifluoromethyl)-4H-pyrazolo[5,1-b]quinazoline-3-carbonitrile], the activity at 2 µM is 17.7%, the activity at 20 µM is -4.1% and the pIC50 was 6.14.
As for `N#Cc1c(C2CCC(c3ccc(Cl)cc3)CC2)nn2c(=O)c3cc(C4CC4)ccc3[nH]c12` (stereo not drawn) [Example 13, 2-[4-(4-Chlorophenyl)cyclohexyl]-7-cyclopropyl-9-oxo-4H-pyrazolo[5,1-b]quinazoline-3-carbonitrile], the activity at 2 µM was -3.1%, the activity at 20 µM was -3.6% and the pIC50 is 6.47.
The like results for `N#Cc1c(C2(c3ccc(Cl)cc3)CC2)nn2c(=O)c3cc(C4CC4)ccc3[nH]c12` [Example 14, 2-[1-(4-Chlorophenyl)cyclopropyl]-7-cyclopropyl-9-oxo-4H-pyrazolo[5,1-b]quinazoline-3-carbonitrile] were, in that order, -2.3%, -1.8% and 6.33.
The like results for `N#Cc1c(C2CCC(c3ccc(Cl)cc3)CC2)nn2c(=O)c3cc(C(F)(F)F)ccc3[nH]c12` (stereo not drawn) [Example 15, 2-[4-(4-Chlorophenyl)cyclohexyl]-9-oxo-7-(trifluoromethyl)-4H-pyrazolo[5,1-b]quinazoline-3-carbonitrile] were, in that order, -3.1%, -4% and 6.49.
Take `N#Cc1c(C2CCN(c3ccc(Cl)cc3)CC2)nn2c(=O)c3cc(C(F)(F)F)ccc3[nH]c12` [Example 16, 2-[1-(4-Chlorophenyl)-4-piperidyl]-9-oxo-7-(trifluoromethyl)-4H-pyrazolo[5,1-b]quinazoline-3-carbonitrile]: the activity at 2 µM came out at 33.7% and the activity at 20 µM was -4.1%.
For `N#Cc1c(C2CCC(c3ccc(Cl)cc3)CC2)nn2c(=O)c3cc(Cl)ccc3[nH]c12` (stereo not drawn) [Example 17, 7-Chloro-2-[4-(4-chlorophenyl)cyclohexyl]-9-oxo-4H-pyrazolo[5,1-b]quinazoline-3-carbonitrile], the activity at 2 µM is -2.3%, the activity at 20 µM was -3.9% and the pIC50 is 6.22.
The like results for `N#Cc1c(C2(c3ccc(Cl)cc3)CC2)nn2c(=O)c3cc(Cl)ccc3[nH]c12` [Example 18, 7-Chloro-2-[1-(4-chlorophenyl)cyclopropyl]-9-oxo-4H-pyrazolo[5,1-b]quinazoline-3-carbonitrile] were, in that order, -0.5%, 2.8% and 6.12.
The like results for `N#Cc1c(C2(c3ccc(Cl)cc3)CC2)nn2c(=O)c3cc(F)ccc3[nH]c12` [Example 19, 2-[1-(4-Chlorophenyl)cyclopropyl]-7-fluoro-9-oxo-4H-pyrazolo[5,1-b]quinazoline-3-carbonitrile] were, in that order, 1.4%, -0.4% and 5.80.
The like results for `N#Cc1c(N2CCC(c3ccc(Cl)cc3)CC2)nn2c(=O)c3cc(Cl)ccc3[nH]c12` [Example 20, 7-Chloro-2-[4-(4-chlorophenyl)-1-piperidyl]-9-oxo-4H-pyrazolo[5,1-b]quinazoline-3-carbonitrile] were, in that order, -2.5%, -3.1% and 6.48.
For `N#Cc1c(C2CCN(c3ccc(Cl)cc3)CC2)nn2c(=O)c3cc(Cl)ccc3[nH]c12` [Example 21, 7-Chloro-2-[1-(4-chlorophenyl)-4-piperidyl]-9-oxo-4H-pyrazolo[5,1-b]quinazoline-3-carbonitrile], the activity at 2 µM is -2% and the activity at 20 µM is -2.6%.
Turning to `N#Cc1c(C2CCC(c3ccc(Cl)cc3)CC2)nn2c(=O)c3cc(Br)ccc3[nH]c12` (stereo not drawn) [Example 22, 7-Bromo-2-[4-(4-chlorophenyl)cyclohexyl]-9-oxo-4H-pyrazolo[5,1-b]quinazoline-3-carbonitrile], the activity at 2 µM is -2.9%, the activity at 20 µM is -2.8% and the pIC50 was 6.17.
Take `N#Cc1c(OC2CCN(c3ncc(Cl)cn3)CC2)nn2c(=O)c3cc(Cl)ccc3[nH]c12` [Example 23, 7-Chloro-2-[[1-(5-chloropyrimidin-2-yl)-4-piperidyl]oxy]-9-oxo-4H-pyrazolo[5,1-b]quinazoline-3-carbonitrile]: the activity at 2 µM stood at 8.2% and the activity at 20 µM was -2.9%.
The like results for `N#Cc1c(OC2CCN(C(=O)c3ccc(Cl)cc3)CC2)nn2c(=O)c3cc(Cl)ccc3[nH]c12` [Example 24, 7-Chloro-2-[[1-(4-chlorobenzoyl)-4-piperidyl]oxy]-9-oxo-4H-pyrazolo[5,1-b]quinazoline-3-carbonitrile] were, in that order, 72.4% and 1.6%.
The like results for `N#Cc1c(OC2CCN(c3ccc(Cl)cn3)CC2)nn2c(=O)c3cc(Cl)ccc3[nH]c12` [Example 25, 7-Chloro-2-[[1-(5-chloro-2-pyridyl)-4-piperidyl]oxy]-9-oxo-4H-pyrazolo[5,1-b]quinazoline-3-carbonitrile] were, in that order, 41.7% and -3.8%.
For `NC(=O)c1c(C2CCC(c3ccc(Cl)cc3)CC2)nn2c(=O)c3ccccc3[nH]c12` (stereo not drawn) [Example 26, 2-[4-(4-Chlorophenyl)cyclohexyl]-9-oxo-4H-pyrazolo[5,1-b]quinazoline-3-carboxamide], the activity at 2 µM was determined as 68.8% and the activity at 20 µM is -4.5%.
The like results for `NC(=O)c1c(CCCOc2ccc(Cl)cc2)nn2c(=O)c3ccccc3[nH]c12` [Example 28, 2-[3-(4-Chlorophenoxy)propyl]-9-oxo-4H-pyrazolo[5,1-b]quinazoline-3-carboxamide] were, in that order, 68.9% and 40.3%.
The like results for `NC(=O)c1c(C2(c3ccc(Cl)cc3)CC2)nn2c(=O)c3ccccc3[nH]c12` [Example 30, 2-[1-(4-Chlorophenyl)cyclopropyl]-9-oxo-4H-pyrazolo[5,1-b]quinazoline-3-carboxamide] were, in that order, 101% and 22.1%.
Consider `NC(=O)c1c(-c2ccc(Cl)cc2Cl)nn2c(=O)c3ccccc3[nH]c12` [Example 32, 2-(2,4-Dichlorophenyl)-9-oxo-4H-pyrazolo[5,1-b]quinazoline-3-carboxamide], for which the activity at 20 µM was found to be 57.5%.
As for `N#Cc1c(-c2ccc(Cl)cc2Cl)nn2c(=O)c3ccccc3[nH]c12` [Example 33, 2-(2,4-Dichlorophenyl)-9-oxo-4H-pyrazolo[5,1-b]quinazoline-3-carbonitrile], the activity at 20 µM was -3.6% and the pIC50 is 5.70.
The like results for `NC(=O)c1c(-c2ccc(Cl)cc2Cl)nn2c(=O)c3ccc(Cl)cc3[nH]c12` [Example 34, 6-Chloro-2-(2,4-dichlorophenyl)-9-oxo-4H-pyrazolo[5,1-b]quinazoline-3-carboxamide] were, in that order, -3.4% and 5.44.
For `N#Cc1c(-c2ccc(Cl)cc2Cl)nn2c(=O)c3ccc(Cl)cc3[nH]c12` [Example 35, 6-Chloro-2-(2,4-dichlorophenyl)-9-oxo-4H-pyrazolo[5,1-b]quinazoline-3-carbonitrile], the pIC50 is 5.68.
Same read-out and setting: for `COc1cccc2c(=O)n3nc(-c4ccc(Cl)cc4Cl)c(C#N)c3[nH]c12` [Example 36, 2-(2,4-Dichlorophenyl)-5-methoxy-9-oxo-4H-pyrazolo[5,1-b]quinazoline-3-carbonitrile] the value was 5.00.
Consider `COc1cccc2[nH]c3c(C#N)c(-c4ccc(Cl)cc4Cl)nn3c(=O)c12` [Example 37, 2-(2,4-Dichlorophenyl)-8-methoxy-9-oxo-4H-pyrazolo[5,1-b]quinazoline-3-carbonitrile], for which the activity at 2 µM amounted to 100% and the activity at 20 µM turned out to be 18%.
On to `COc1c(Cl)ccc2c(=O)n3nc(-c4ccc(Cl)cc4Cl)c(C#N)c3[nH]c12` [Example 38, 6-Chloro-2-(2,4-dichlorophenyl)-5-methoxy-9-oxo-4H-pyrazolo[5,1-b]quinazoline-3-carbonitrile], for which the activity at 2 µM turned out to be 74%, the activity at 20 µM stood at 19% and the negative logarithm of the IC50 (pIC50) is 5.70.

As a reminder, the pIC50 is the negative decadic logarithm of the IC50, by convention in mol/L.

(Values after patent publication US11192893B2, “Pyrazoloquinazolinone antitumor agents” (The Rockefeller University, priority 2017, dated 2021).)
